Data: patent US4081441A, “Antibacterial agents” (priority 1977, dated 1978)
Like-named read-outs stand apart in the source and are kept apart here.

Key:
[1] = test system: Cl. chauvoei; test: M.I.C. against anaerobic bacteria, Cl. chauvoei; format: cell-based; conditions: strain A9561
[2] = Mouse blood (serum) antibiotic levels after single intramuscular dose; format: in vivo; conditions: im, mice, 40 mg./kg. i.m., read-out: Blood Level
Description: Serum antibiotic levels from mice administered a single intramuscular dose of 40 mg./kg. of BL-[…] or carbenicillin are shown below.

[3] = test system: Pseudomonas aeruginosa; test: Minimum Bactericidal Concentration of BL-P1937, at least 99.9% kill, three inoculum sizes; format: cell-based
Description: The bactericidal in vitro activity of BL-P1937 against Pseudomonas aeruginosa strains was also determined. Three tests were run, using initial inoculum sizes of 2.4 × 10^5, 1.6 × 10^5 and 1.4 × 10^5 cells/ml., respectively, and the M.B.C. was defined as the lowest concentration of antibiotic in mcg./ml. needed to kill at least 99.9% of viable Pseudomonas cells.

[4] = test system: Pseudomonas aeruginosa; test: Minimum Inhibitory Concentration, tube dilution, overnight incubation at 37° C.; format: cell-based
[5] = mice, 40 mg./kg. i.m., Literature values, cited from earlier work
[6] = test system: Pseudomonas aeruginosa; conditions: prior art; cited from earlier work

CC1(C)S[C@@H]2[C@H](NC(=O)[C@H](NC(=O)c3n[nH]c(=O)[nH]c3=O)c3ccc(O)cc3)C(=O)N2[C@H]1C(=O)O [BL-P1908, sodium D(-)-6-(α-(1,2,4-triazine-3,5-dione-6-carboxamido)-4-hydroxyphenylacetamido)penicillanate] gave an MIC [1] of 4 µg/mL.

CC1(C)S[C@@H]2[C@H](NC(=O)[C@H](NC(=O)c3n[nH]c(=S)[nH]c3=O)c3ccc(O)cc3)C(=O)N2[C@H]1C(=O)O [BL-P1937, sodium D(-)-6-(α-(1,2,4-triazine-3-thione-5-one-6-carboxamido)-4-hydroxyphenylacetamido)-penicillanate] gave a concentration at 0.25 h ([2]; 15 min.) of 19900 ng/mL, a concentration at 0.5 h ([2]; 30 min.) of 10300 ng/mL and a concentration at 1 h ([2]; 60 min.) of under 2200 ng/mL. It also gave a concentration at 1.5 h ([2]; 90 min.) of under 2200 ng/mL, an MBC ([3]; strain A9843A, Test 1, inoculum 2.4 × 10^5) of 125 µg/mL and an MBC ([3]; strain A9910, Test 1, inoculum 2.4 × 10^5, read-out: M.B.C.) of 125 µg/mL. For the same compound, the MBC ([3]; strain A9910, Test 2, inoculum 1.6 × 10^5, read-out: M.B.C.) was 250 µg/mL, the MBC ([3]; strain A9910, Test 3, inoculum 1.4 × 10^5, read-out: M.B.C.) was 500 µg/mL and the MBC ([3]; strain A9926, Test 1, inoculum 2.4 × 10^5, read-out: M.B.C.) was 250 µg/mL. The MBC ([3]; strain A9926, Test 2, inoculum 1.6 × 10^5, read-out: M.B.C.) was 1000 µg/mL, the MBC ([3]; strain A9926, Test 3, inoculum 1.4 × 10^5, read-out: M.B.C.) was 250 µg/mL and the MBC ([3]; strain A20126, Test 1, inoculum 2.4 × 10^5, read-out: M.B.C.) was 16 µg/mL. It also gave an MBC ([3]; strain A20126, Test 2, inoculum 1.6 × 10^5, read-out: M.B.C.) of 63 µg/mL, an MBC ([3]; strain A20126, Test 3, inoculum 1.4 × 10^5, read-out: M.B.C.) of 63 µg/mL and an MBC ([3]; strain A20128, Test 1, inoculum 2.4 × 10^5, read-out: M.B.C.) of 16 µg/mL. It also gave an MBC ([3]; strain A20128, Test 2, inoculum 1.6 × 10^5, read-out: M.B.C.) of 16 µg/mL, an MBC ([3]; strain A20128, Test 3, inoculum 1.4 × 10^5, read-out: M.B.C.) of 63 µg/mL and an MBC ([3]; strain A20227, Test 1, inoculum 2.4 × 10^5, read-out: M.B.C.) of 63 µg/mL. It also gave an MBC ([3]; strain A20227, Test 2, inoculum 1.6 × 10^5, read-out: M.B.C.) of 8 µg/mL, an MBC ([3]; strain A20227, Test 3, inoculum 1.4 × 10^5, read-out: M.B.C.) of 16 µg/mL and an MBC ([3]; strain A20228, Test 1, inoculum 2.4 × 10^5, read-out: M.B.C.) of 125 µg/mL. It also gave an MBC ([3]; strain A20228, Test 2, inoculum 1.6 × 10^5, read-out: M.B.C.) of 500 µg/mL, an MBC ([3]; strain A20228, Test 3, inoculum 1.4 × 10^5, read-out: M.B.C.) of 250 µg/mL and an MBC ([3]; strain A20546, Test 1, inoculum 2.4 × 10^5, read-out: M.B.C.) of 250 µg/mL. For the same compound, the MBC ([3]; strain A20546, Test 2, inoculum 1.6 × 10^5, read-out: M.B.C.) was 1000 µg/mL, the MBC ([3]; strain A20546, Test 3, inoculum 1.4 × 10^5, read-out: M.B.C.) was 500 µg/mL and the MBC ([3]; strain A20557, Test 1, inoculum 2.4 × 10^5, read-out: M.B.C.) was 250 µg/mL. The MBC ([3]; strain A20557, Test 2, inoculum 1.6 × 10^5, read-out: M.B.C.) was 1000 µg/mL, the MBC ([3]; strain A20557, Test 3, inoculum 1.4 × 10^5, read-out: M.B.C.) was 500 µg/mL and the MBC ([3]; strain A20574, Test 1, inoculum 2.4 × 10^5, read-out: M.B.C.) was 250 µg/mL. It also gave an MBC ([3]; strain A20574, Test 2, inoculum 1.6 × 10^5, read-out: M.B.C.) of 250 µg/mL, an MBC ([3]; strain A20574, Test 3, inoculum 1.4 × 10^5, read-out: M.B.C.) of 500 µg/mL and an MBC ([3]; strain A20602, Test 1, inoculum 2.4 × 10^5, read-out: M.B.C.) of 250 µg/mL. The MBC ([3]; strain A20602, Test 2, inoculum 1.6 × 10^5, read-out: M.B.C.) was 500 µg/mL, the MBC ([3]; strain A20602, Test 3, inoculum 1.4 × 10^5, read-out: M.B.C.) was 500 µg/mL and the MBC ([3]; strain A20616, Test 1, inoculum 2.4 × 10^5, read-out: M.B.C.) was 125 µg/mL. It also gave an MBC ([3]; strain A20616, Test 2, inoculum 1.6 × 10^5, read-out: M.B.C.) of 250 µg/mL, an MBC ([3]; strain A20616, Test 3, inoculum 1.4 × 10^5, read-out: M.B.C.) of 500 µg/mL and an MBC ([3]; strain A20641, Test 1, inoculum 2.4 × 10^5, read-out: M.B.C.) of 125 µg/mL. The MBC ([3]; strain A20641, Test 2, inoculum 1.6 × 10^5, read-out: M.B.C.) was 250 µg/mL, the MBC ([3]; strain A20641, Test 3, inoculum 1.4 × 10^5, read-out: M.B.C.) was 250 µg/mL and the MBC ([3]; strain A20717, Test 1, inoculum 2.4 × 10^5, read-out: M.B.C.) was 500 µg/mL. For the same compound, the MBC ([3]; strain A20717, Test 2, inoculum 1.6 × 10^5, read-out: M.B.C.) was 1000 µg/mL, the MBC ([3]; strain A20717, Test 3, inoculum 1.4 × 10^5, read-out: M.B.C.) was over 1000 µg/mL and the MBC ([3]; strain A20726, Test 1, inoculum 2.4 × 10^5, read-out: M.B.C.) was 32 µg/mL. For the same compound, the MBC ([3]; strain A20726, Test 2, inoculum 1.6 × 10^5, read-out: M.B.C.) was 250 µg/mL, the MBC ([3]; strain A20726, Test 3, inoculum 1.4 × 10^5, read-out: M.B.C.) was 500 µg/mL and the MBC ([3]; strain A21336, Test 1, inoculum 2.4 × 10^5, read-out: M.B.C.) was 250 µg/mL. For the same compound, the MBC ([3]; strain A21336, Test 2, inoculum 1.6 × 10^5, read-out: M.B.C.) was 500 µg/mL, the MBC ([3]; strain A21336, Test 3, inoculum 1.4 × 10^5, read-out: M.B.C.) was 500 µg/mL and the MIC ([4]; strain A9910, Test 1) was 1 µg/mL. For the same compound, the MIC ([4]; strain A9910, Test 2) was 2 µg/mL, the MIC ([4]; strain A9910, Test 3) was 4 µg/mL and the MIC ([4]; strain A9926, Test 1) was 2 µg/mL. It also gave an MIC ([4]; strain A9926, Test 2) of 4 µg/mL, an MIC ([4]; strain A9926, Test 3) of 2 µg/mL and an MIC ([4]; strain A20126, Test 2) of 8 µg/mL. The MIC ([4]; strain A20126, Test 3) was 4 µg/mL, the MIC ([4]; strain A20128, Test 1) was 2 µg/mL and the MIC ([4]; strain A20128, Test 2) was 2 µg/mL. It also gave an MIC ([4]; strain A20128, Test 3) of 2 µg/mL, an MIC ([4]; strain A20227, Test 1) of 4 µg/mL and an MIC ([4]; strain A20227, Test 2) of 4 µg/mL. For the same compound, the MIC ([4]; strain A20227, Test 3) was 2 µg/mL, the MIC ([4]; strain A20228, Test 1) was 2 µg/mL and the MIC ([4]; strain A20228, Test 2) was 8 µg/mL. The MIC ([4]; strain A20228, Test 3) was 2 µg/mL, the MIC ([4]; strain A20546, Test 1) was 2 µg/mL and the MIC ([4]; strain A20546, Test 2) was 2 µg/mL. For the same compound, the MIC ([4]; strain A20546, Test 3) was 2 µg/mL, the MIC ([4]; strain A20557, Test 1) was 2 µg/mL and the MIC ([4]; strain A20557, Test 2) was 4 µg/mL. For the same compound, the MIC ([4]; strain A20557, Test 3) was 4 µg/mL, the MIC ([4]; strain A20574, Test 1) was 4 µg/mL and the MIC ([4]; strain A20574, Test 2) was 2 µg/mL. For the same compound, the MIC ([4]; strain A20574, Test 3) was 2 µg/mL, the MIC ([4]; strain A20602, Test 1) was 4 µg/mL and the MIC ([4]; strain A20602, Test 2) was 8 µg/mL. For the same compound, the MIC ([4]; strain A20602, Test 3) was 2 µg/mL, the MIC ([4]; strain A20616, Test 1) was 2 µg/mL and the MIC ([4]; strain A20616, Test 2) was 4 µg/mL. The MIC ([4]; strain A20616, Test 3) was 4 µg/mL, the MIC ([4]; strain A20641, Test 1) was 8 µg/mL and the MIC ([4]; strain A20641, Test 2) was 8 µg/mL. For the same compound, the MIC ([4]; strain A20641, Test 3) was 8 µg/mL, the MIC ([4]; strain A20717, Test 1) was 16 µg/mL and the MIC ([4]; strain A20717, Test 2) was 32 µg/mL. The MIC ([4]; strain A20717, Test 3) was 16 µg/mL, the MIC ([4]; strain A20726, Test 1) was 2 µg/mL and the MIC ([4]; strain A20726, Test 2) was 8 µg/mL. It also gave an MIC ([4]; strain A20726, Test 3) of 8 µg/mL, an MIC ([4]; strain A21336, Test 1) of 4 µg/mL and an MIC ([4]; strain A21336, Test 2) of 8 µg/mL. For the same compound, the MIC ([4]; strain A21336, Test 3) was 4 µg/mL.

In the case of CC1(C)S[C@@H]2[C@H](NC(=O)C(C(=O)O)c3ccccc3)C(=O)N2[C@H]1C(=O)O (stereo partly shown) [Carbenicillin, reference compound], the “Blood Level” value ([5]; 15 min.) is listed as 18100 ng/mL, the “Blood Level” value ([5]; 30 min.) is listed as 8100 ng/mL and the “Blood Level” value ([5]; 60 min.) is listed as under 4600 ng/mL. The “Blood Level” value ([5]; 90 min.) was under 4600 ng/mL and the “potency against Pseudomonas aeruginosa” value [6] was “relatively low potency”.
